Reference: ChEMBL document CHEMBL1201862, “PubChem BioAssay data set” (2004)
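Each compound was tested at five concentrations against cells in 96-well plates for 48 hours. Abbreviation: GI50, concentration required for 50% inhibition of growth.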 Calls of active or inactive are those of the source. No stated cut-off is given here; in the data, active = GI50 up to about 1.1 µM and inactive = higher.

What was measured:
Test in all cases: NCI-60 cell line screen, 48 h
[1] = system: 786-0
[2] = system: A498
[3] = system: A549
[4] = system: ACHN
[5] = system: DU-145
[6] = system: HT-29
[7] = system: IGROV-1
[8] = system: MDA-MB-435
[9] = system: NCI-H522
[10] = system: OVCAR-4
[11] = system: PC-3
[12] = system: RPMI-8226
[13] = system: SK-MEL-2
[14] = system: TK-10
[15] = system: UACC-257
[16] = system: HCC 2998
[17] = system: Malme-3M
[18] = system: NCI-H23
[19] = system: RXF 393
[20] = system: SK-MEL-5

Compound	GI50 [1]	GI50 [2]	GI50 [3]	GI50 [4]	GI50 [5]	GI50 [6]	GI50 [7]	GI50 [8]	GI50 [9]	GI50 [10]	GI50 [11]	GI50 [12]	GI50 [13]	GI50 [14]	GI50 [15]	GI50 [16]	GI50 [17]	GI50 [18]	GI50 [19]	GI50 [20]
O=c1c(O)c(-c2cc(O)c(O)cc2O)oc2cc(O)c(C3OC(CO)C(O)C(O)C3O)c(O)c12 (stereo not given)	> 100 µM (inactive)	> 100 µM (inactive)	> 100 µM (inactive)	> 100 µM (inactive)	> 100 µM (inactive)	> 100 µM (inactive)	> 100 µM (inactive)	> 100 µM (inactive)	> 100 µM (inactive)	> 100 µM (inactive)	> 100 µM (inactive)	> 100 µM (inactive)	> 100 µM (inactive)	> 100 µM (inactive)	> 100 µM (inactive)					
CC1=C(C(=O)CC(=O)C(=O)Nc2ccc(Cl)cc2C)Sc2ccccc2N1	> 100 µM (inactive)	> 100 µM (inactive)	> 100 µM (inactive)	> 100 µM (inactive)		> 100 µM (inactive)	> 100 µM (inactive)		> 84.7 µM (inactive)	> 100 µM (inactive)		> 100 µM (inactive)	> 100 µM (inactive)	> 100 µM (inactive)	> 100 µM (inactive)	> 100 µM (inactive)	> 100 µM (inactive)	> 100 µM (inactive)	> 100 µM (inactive)	> 100 µM (inactive)
COc1ccc2nc3c([N+](=O)[O-])ccc(NCCCN(C)C)c3c(N)c2c1	1.22 µM (inactive)		1.49 µM (inactive)	1.14 µM (inactive)	1.67 µM (inactive)	0.845 µM (active)	1.21 µM (inactive)	1.77 µM (inactive)	0.474 µM (active)	1.5 µM (inactive)	1.4 µM (inactive)	1.15 µM (inactive)	2.39 µM (inactive)	1.62 µM (inactive)	> 10 µM (inactive)		1.42 µM (inactive)	1.99 µM (inactive)	1.29 µM (inactive)	1.87 µM (inactive)
N#CC(c1nc2ccccc2s1)c1nc(Cl)ncc1Br (stereo not given)	30.3 µM (inactive)	> 100 µM (inactive)	46.5 µM (inactive)	28.2 µM (inactive)	45.7 µM (inactive)	46.5 µM (inactive)	28.9 µM (inactive)	50.6 µM (inactive)	20.7 µM (inactive)	47.8 µM (inactive)		25.4 µM (inactive)		37.3 µM (inactive)	77.4 µM (inactive)		41.4 µM (inactive)	23.6 µM (inactive)	26.9 µM (inactive)	19 µM (inactive)
COc1ccc(NC(=S)N/N=C\c2ccc(NC(C)=O)cc2)cc1	> 100 µM (inactive)		> 100 µM (inactive)	> 100 µM (inactive)	> 100 µM (inactive)	> 100 µM (inactive)	> 100 µM (inactive)	> 100 µM (inactive)	> 100 µM (inactive)	> 100 µM (inactive)	> 100 µM (inactive)	> 100 µM (inactive)	> 100 µM (inactive)	> 100 µM (inactive)	> 100 µM (inactive)	> 100 µM (inactive)	> 100 µM (inactive)	> 100 µM (inactive)		> 100 µM (inactive)
O=c1[nH]nc(NCCc2ccccc2)c2nnn(Cc3ccccc3)c12	> 100 µM (inactive)		> 100 µM (inactive)	> 100 µM (inactive)	> 100 µM (inactive)	> 100 µM (inactive)		> 100 µM (inactive)		> 100 µM (inactive)	> 100 µM (inactive)	> 100 µM (inactive)	> 100 µM (inactive)	> 100 µM (inactive)	> 100 µM (inactive)	> 100 µM (inactive)	> 100 µM (inactive)	> 100 µM (inactive)	> 100 µM (inactive)	> 100 µM (inactive)
O=C1c2ccccc2-c2ccc(NC(=O)C3CCCCC3C(=O)O)cc21 (stereo not given)	> 100 µM (inactive)	> 100 µM (inactive)	> 100 µM (inactive)	> 100 µM (inactive)	> 100 µM (inactive)	87.3 µM (inactive)	> 100 µM (inactive)	> 100 µM (inactive)	> 100 µM (inactive)	> 100 µM (inactive)	> 100 µM (inactive)	> 100 µM (inactive)	> 100 µM (inactive)	> 100 µM (inactive)	> 100 µM (inactive)		> 100 µM (inactive)	> 100 µM (inactive)	> 100 µM (inactive)	> 100 µM (inactive)
Cc1ccc(OCC2=NN3C(=O)/C(=C\c4ccc([N+](=O)[O-])o4)SC3N2)cc1 (stereo not given)	10.2 µM (inactive)	17.4 µM (inactive)	19 µM (inactive)	1.71 µM (inactive)	5.68 µM (inactive)	6.7 µM (inactive)	10.5 µM (inactive)	5.47 µM (inactive)	1.82 µM (inactive)	2.99 µM (inactive)	5.5 µM (inactive)	2.16 µM (inactive)	15.7 µM (inactive)	16.5 µM (inactive)	12.8 µM (inactive)		2.66 µM (inactive)	11.9 µM (inactive)	14.9 µM (inactive)	8.99 µM (inactive)
